Measured values as given in patent publication US20190327975A1, “AN ANTIMICROBIAL COMPOSITION” (Conopco, Inc., d/b/a UNILEVER, priority 2016, published 2019).

Text: More particularly, silver ion solubility [Ag+], a value given in mol/L may be calculated using the formula: […]

## [Cl][Ag] [Silver chloride]
  Silver Ion Solubility [Ag+]: 13 µM
